Results taken from US9416383B2, “Method for enhancing catalytic activity of a lipase” (University of North Carolina at Chapel Hill, priority 2007, dated 2016).
“Also recorded” adds a separate entry of the source.

Legend:
human PLCβ3 (hPLCβ3) = biological target: T1, human PLCβ3 (hPLCβ3) (Homo sapiens, UniProt Q01970); assay: PLCβ3 activity by cell free assay ([3H]-inositol phosphate formation from PIP2 in dodecylmaltoside mixed micelles); format: biochemical; conditions: for effect on activity of hPLCβ3 in DDM mixed micelles: FIG. 2; for effect on U73122-induced activation of hPLCβ3: FIGS. 3 and 6B
T1 construct: confirmed alkylation at up to eight cysteine residues on the full length protein; gift: laboratory of Dr. T. K. Harden, University of North Carolina
T1 sequence (Q01970 1-1234): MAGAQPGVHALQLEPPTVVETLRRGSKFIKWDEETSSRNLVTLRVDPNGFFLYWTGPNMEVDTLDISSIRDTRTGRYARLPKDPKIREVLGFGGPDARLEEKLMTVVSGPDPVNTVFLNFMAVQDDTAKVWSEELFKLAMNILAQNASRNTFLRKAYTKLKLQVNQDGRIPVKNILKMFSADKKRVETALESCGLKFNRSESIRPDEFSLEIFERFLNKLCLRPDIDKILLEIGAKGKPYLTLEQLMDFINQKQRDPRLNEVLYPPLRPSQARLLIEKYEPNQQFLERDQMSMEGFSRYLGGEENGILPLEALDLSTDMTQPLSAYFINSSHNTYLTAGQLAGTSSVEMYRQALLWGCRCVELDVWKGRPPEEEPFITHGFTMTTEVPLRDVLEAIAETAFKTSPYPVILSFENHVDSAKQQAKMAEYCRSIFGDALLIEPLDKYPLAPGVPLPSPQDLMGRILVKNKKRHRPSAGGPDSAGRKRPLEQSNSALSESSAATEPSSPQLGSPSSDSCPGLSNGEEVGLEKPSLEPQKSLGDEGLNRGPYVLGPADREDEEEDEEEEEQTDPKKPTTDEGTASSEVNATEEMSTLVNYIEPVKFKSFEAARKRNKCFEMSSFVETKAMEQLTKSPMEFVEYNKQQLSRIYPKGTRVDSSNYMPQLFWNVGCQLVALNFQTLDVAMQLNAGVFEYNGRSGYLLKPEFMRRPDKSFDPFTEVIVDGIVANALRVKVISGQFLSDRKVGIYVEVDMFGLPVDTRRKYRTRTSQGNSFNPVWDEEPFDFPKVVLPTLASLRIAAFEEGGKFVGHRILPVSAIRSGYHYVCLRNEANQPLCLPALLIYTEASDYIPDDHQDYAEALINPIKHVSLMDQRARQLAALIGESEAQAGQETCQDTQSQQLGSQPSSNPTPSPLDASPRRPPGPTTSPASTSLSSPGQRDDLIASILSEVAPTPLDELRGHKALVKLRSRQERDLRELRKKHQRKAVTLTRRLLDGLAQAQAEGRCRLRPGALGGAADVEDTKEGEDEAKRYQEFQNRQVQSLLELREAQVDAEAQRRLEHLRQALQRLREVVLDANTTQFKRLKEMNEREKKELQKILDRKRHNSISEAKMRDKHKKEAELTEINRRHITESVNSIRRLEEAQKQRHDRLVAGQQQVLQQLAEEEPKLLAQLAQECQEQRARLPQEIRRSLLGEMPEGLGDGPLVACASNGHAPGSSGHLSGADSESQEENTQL
Protocol: Purified human PLCβ3 protein was generously provided by the laboratory of Dr. T. K. Harden (Department of Pharmacology, University of North Carolina, Chapel Hill, N.C., United States of America). […] Briefly, hot and cold phosphatidylinositol-4,5-bisphosphate (PIP2; 5 nmol), as substrate, was reconstituted in a 1 mM dodecylmaltoside solution and mixed with assay buffer containing 40 mM Hepes (pH 7.4), 480 mM KCl, 40 mM NaCl, 8 mM EGTA, 4 mM […], and 7.6 mM CaCl2. Compounds at desired concentrations and purified PLCβ3 in 1% fatty acid-free BSA and 10 mM Hepes (pH 7.0), were subsequently added to the mixture. To initiate assays, samples were moved to a 37° C. water bath and incubated for 2-10 minutes such that less than fifteen percent total substrate was hydrolyzed. At designated times, reactions were stopped by addition of 750 μl CHCl3:MeOH:HCl (40:80:1), 100 μl water, 250 μl CHCl3, and 250 μl 0.1M HCl. Samples were vortexed and centrifuged at 3000 rpm for 10 minutes at 4° C. The amount of formed [^3H]-inositol phosphates was measured by liquid scintillation counting of 500 μl of the upper phase in a Packard Tri Carb 4000 Series […].
Data are expressed as mean±SD of three experiments performed in triplicate unless otherwise indicated. Statistical significance was evaluated using unpaired Students t tests. Data were modeled using Win-non Lin (Pharsight, Mountain View, Calif., United States of America) non-linear regression analysis for determination of EC50 (PLCβ3) and IC50 values.

hPLCβ3 = biological target: T2, hPLCβ3 (Homo sapiens, UniProt Q01970); assay: Mass spectrometry of intact hPLCβ3 and LC/MS/MS peptide sequencing (alkylation); conditions: FIG. 6A
T2 construct: confirmed alkylation at up to eight cysteine residues on the full length protein; gift: laboratory of Dr. T. K. Harden, University of North Carolina
T2 sequence (Q01970 1-1234): T1 sequence (Q01970 1-1234)
Protocol: The mass-to-charge data were transformed to the mass domain using BioConfirm software from Agilent. For peptide sequencing, solution phase and SDS gel bands of unmodified and modified PLCβ3 was incubated with trypsin overnight at 37° C. […] The tryptic peptides were subsequently analyzed by nano-LC/MS/MS using a Dionex UltiMate nano LC (Sunnyvale, Calif., United States of America) coupled to Sciex (Toronto, Ontario, Canada) Q-Star Pulsar i mass spectrometer. The results were processed using MASCOT (Matrix Sciences, Boston, Mass., United States of America) protein database that had the mass of U73122 modification created as a variable modification.

PLC in MDCK cells = conditions: ATP-stimulated, concentration dependent; cited from earlier work
PLC in Caco-2 cells = conditions: ATP-stimulated, concentration dependent; cited from earlier work
MDCK cell monolayers = conditions: concentration-dependent; cited from earlier work
Caco-2 cell monolayers = conditions: concentration-dependent; cited from earlier work

| effect on U73122-induced activation of hPLCβ3 (human PLCβ3 (hPLCβ3); DDM mixed micelles) | SMILES | effect on activity of hPLCβ3 in DDM mixed micelles (human PLCβ3 (hPLCβ3); DDM mixed micelles) | inhibition of PLC activity in MDCK cells (PLC in MDCK cells) | inhibition of PLC activity in Caco-2 cells (PLC in Caco-2 cells) | also measured |
| --- | --- | --- | --- | --- | --- |
|  | COc1ccc2c(c1)CC[C@@H]1[C@@H]2CC[C@]2(C)[C@@H](NCCCCCCN3C(=O)C=CC3=O)CC[C@@H]12 [U73122] | increases the activity | inhibits | inhibits | EC50 (human PLCβ3 (hPLCβ3)): 14 ± 5 µM; time dependence of hPLCβ3 activation (human PLCβ3 (hPLCβ3); FIG. 4): time dependent; effect on tight junction permeability, MDCK monolayers (MDCK cell monolayers): enhances; effect on tight junction permeability, Caco-2 monolayers (Caco-2 cell monolayers): enhances |
|  | COc1ccc2c(c1)CC[C@@H]1[C@@H]2CC[C@]2(C)[C@@H](NCCCCCCN3C(=O)CCC3=O)CC[C@@H]12 [U73343] | do not | does not | does not |  |
| inhibit | N[C@@H](CS)C(=O)O [cysteine] |  |  |  |  |
| inhibits | N[C@@H](CCC(=O)N[C@@H](CS)C(=O)NCC(=O)O)C(=O)O [glutathione] |  |  |  | IC50 (human PLCβ3 (hPLCβ3); DDM mixed micelles, mean±SD, read-out: IC50 for inhibition of U73122-induced activation of hPLCβ3): 38 ± 16 µM |

| SMILES | effect on U73122-induced activation of hPLCβ3 (human PLCβ3 (hPLCβ3); DDM mixed micelles) | effect on activity of hPLCβ3 in DDM mixed micelles (human PLCβ3 (hPLCβ3); DDM mixed micelles) | inhibition of PLC activity in MDCK cells (PLC in MDCK cells) | inhibition of PLC activity in Caco-2 cells (PLC in Caco-2 cells) | also measured |
| --- | --- | --- | --- | --- | --- |
| CCN1C(=O)C=CC1=O [NEM, N-ethylmaleimide] | inhibits | do not; also recorded: inability to activate |  |  | alkylation of hPLCβ3 (hPLCβ3): alkylates hPLCβ3 at multiple amino acid residues |
